In PMC4051630, “A Comparison of Protein Kinases Inhibitor Screening Methods Using Both Enzymatic Activity and Binding Affinity Determination” (PLoS ONE, 2014):

Legend:
Assay in all cases: Differential Scanning Fluorimetry (DSF) Tm shift
Type in all cases: binding
[1] = target: T1, CDK2 + Cyclin A (Homo sapiens, UniProt P24941); conditions: CDK2 + Cyclin A; 2 µM protein, 10 µM inhibitor; average of 3 experiments, each in duplicate
T1 construct: CDK2 (P24941); 1–299; His-tag; made in house; host or cells: Escherichia coli

[2] = target: T2, DMPK Catalytic Domain (Homo sapiens, UniProt Q09013); conditions: 2 µM protein, 10 µM inhibitor, average of 3 experiments, each in duplicate
T2 construct: For all of them, we expressed and purified the catalytic domain separately; His-tag; made in house; host or cells: Escherichia coli
T2 sequence (Q09013 71-339 limits assumed): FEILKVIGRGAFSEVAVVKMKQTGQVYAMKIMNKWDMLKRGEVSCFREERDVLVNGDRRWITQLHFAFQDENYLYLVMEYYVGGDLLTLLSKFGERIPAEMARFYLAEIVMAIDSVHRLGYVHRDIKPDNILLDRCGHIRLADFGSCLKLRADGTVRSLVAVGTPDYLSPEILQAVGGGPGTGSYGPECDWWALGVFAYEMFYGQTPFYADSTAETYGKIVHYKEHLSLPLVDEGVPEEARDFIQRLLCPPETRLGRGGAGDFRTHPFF

[3] = target: T3, PAK7 Catalytic Domain (Homo sapiens, UniProt Q9P286); conditions: 2 µM protein, 10 µM inhibitor, average of 3 experiments, each in duplicate
T3 construct: For all of them, we expressed and purified the catalytic domain separately; His-tag; made in house; host or cells: Escherichia coli
T3 sequence (Q9P286 449-700 limits assumed): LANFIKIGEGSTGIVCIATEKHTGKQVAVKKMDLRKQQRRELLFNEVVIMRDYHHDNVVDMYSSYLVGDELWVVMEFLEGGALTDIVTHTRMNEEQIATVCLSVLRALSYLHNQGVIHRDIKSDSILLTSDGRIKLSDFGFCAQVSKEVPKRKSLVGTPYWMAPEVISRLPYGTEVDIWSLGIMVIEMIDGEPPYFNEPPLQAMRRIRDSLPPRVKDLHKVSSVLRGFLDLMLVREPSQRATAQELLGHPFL

[4] = target: T4, FES Catalytic Domain (Homo sapiens, UniProt P07332); conditions: 2 µM protein, 10 µM inhibitor, average of 3 experiments, each in duplicate
T4 construct: For all of them, we expressed and purified the catalytic domain separately; His-tag; made in house; host or cells: Escherichia coli
T4 sequence (P07332 561-822 limits assumed): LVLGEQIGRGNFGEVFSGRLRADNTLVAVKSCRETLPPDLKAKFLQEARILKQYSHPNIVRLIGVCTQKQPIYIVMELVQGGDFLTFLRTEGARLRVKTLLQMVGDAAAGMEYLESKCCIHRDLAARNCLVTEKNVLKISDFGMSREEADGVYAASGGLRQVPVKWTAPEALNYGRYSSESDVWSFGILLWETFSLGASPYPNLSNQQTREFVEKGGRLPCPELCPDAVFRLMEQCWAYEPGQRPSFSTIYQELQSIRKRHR

[5] = target: T5, FAK2 Catalytic Domain (Homo sapiens, UniProt Q14289); conditions: 2 µM protein, 10 µM inhibitor, average of 3 experiments, each in duplicate
T5 construct: For all of them, we expressed and purified the catalytic domain separately; His-tag; made in house; host or cells: Escherichia coli
T5 sequence (Q14289 425-683 limits assumed): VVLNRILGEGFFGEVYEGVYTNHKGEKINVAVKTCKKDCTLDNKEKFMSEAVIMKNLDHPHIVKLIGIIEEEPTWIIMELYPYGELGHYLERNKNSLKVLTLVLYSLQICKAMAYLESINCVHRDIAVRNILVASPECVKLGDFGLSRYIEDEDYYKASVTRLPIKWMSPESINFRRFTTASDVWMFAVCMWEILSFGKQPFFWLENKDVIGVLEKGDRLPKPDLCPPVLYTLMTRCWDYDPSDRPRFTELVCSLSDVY

[6] = target: T6, STK3 Catalytic Domain (Homo sapiens, UniProt Q13188); conditions: 2 µM protein, 10 µM inhibitor, average of 3 experiments, each in duplicate
T6 construct: For all of them, we expressed and purified the catalytic domain separately; His-tag; made in house; host or cells: Escherichia coli
T6 sequence (Q13188 27-278 limits assumed): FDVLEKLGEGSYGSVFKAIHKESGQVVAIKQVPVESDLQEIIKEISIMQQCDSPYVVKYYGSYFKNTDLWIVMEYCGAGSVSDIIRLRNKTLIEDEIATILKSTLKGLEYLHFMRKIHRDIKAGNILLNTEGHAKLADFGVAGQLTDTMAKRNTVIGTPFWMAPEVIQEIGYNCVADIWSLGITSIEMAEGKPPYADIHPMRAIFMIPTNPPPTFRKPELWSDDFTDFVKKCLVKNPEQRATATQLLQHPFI

[7] = target: T7, CDK2 + Cyclin E (Homo sapiens, UniProt P24941); conditions: CDK2 + Cyclin E; 2 µM protein, 10 µM inhibitor; average of 3 experiments, each in duplicate
T7 construct: CDK2 (P24941); 1–299; His-tag; made in house; host or cells: Escherichia coli

[8] = target: T8, CHK2 Catalytic Domain (Homo sapiens, UniProt O96017); conditions: 2 µM protein, 10 µM inhibitor, average of 3 experiments, each in duplicate
T8 construct: For all of them, we expressed and purified the catalytic domain separately; His-tag; made in house; host or cells: Escherichia coli
T8 sequence (O96017 220-486 limits assumed): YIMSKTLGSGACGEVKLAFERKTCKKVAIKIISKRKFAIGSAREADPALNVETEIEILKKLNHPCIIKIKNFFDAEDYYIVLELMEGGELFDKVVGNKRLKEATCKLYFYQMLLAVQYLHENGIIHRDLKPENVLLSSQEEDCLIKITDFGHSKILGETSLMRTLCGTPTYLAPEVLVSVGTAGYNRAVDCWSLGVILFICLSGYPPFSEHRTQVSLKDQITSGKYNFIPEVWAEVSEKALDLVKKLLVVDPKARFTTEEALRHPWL

[9] = target: T9, PAK4 Catalytic Domain+PBD (Homo sapiens, UniProt O96013); conditions: 2 µM protein, 10 µM inhibitor, average of 3 experiments, each in duplicate
T9 construct: for 8, we also made a longer version containing one or more additional domains; His-tag; made in house; host or cells: Escherichia coli
T9 sequence (O96013 whole entry, the tested form may be a part): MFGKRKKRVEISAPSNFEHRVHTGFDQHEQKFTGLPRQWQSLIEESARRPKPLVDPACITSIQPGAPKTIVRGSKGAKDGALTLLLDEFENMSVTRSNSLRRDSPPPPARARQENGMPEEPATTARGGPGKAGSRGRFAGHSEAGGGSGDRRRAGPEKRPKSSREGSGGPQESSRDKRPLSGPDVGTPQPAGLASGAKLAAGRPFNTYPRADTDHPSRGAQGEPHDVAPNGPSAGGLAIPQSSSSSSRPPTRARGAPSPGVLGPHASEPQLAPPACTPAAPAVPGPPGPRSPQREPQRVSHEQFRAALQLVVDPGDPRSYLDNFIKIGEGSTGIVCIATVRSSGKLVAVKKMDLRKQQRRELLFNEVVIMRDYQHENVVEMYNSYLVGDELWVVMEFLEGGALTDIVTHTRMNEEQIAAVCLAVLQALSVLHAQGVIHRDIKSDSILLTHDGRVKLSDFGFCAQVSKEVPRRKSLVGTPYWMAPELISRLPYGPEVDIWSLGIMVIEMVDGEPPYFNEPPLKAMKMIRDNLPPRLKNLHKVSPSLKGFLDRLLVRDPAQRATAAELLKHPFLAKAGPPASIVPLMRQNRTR

[10] = target: T10, PAK4 Catalytic Domain (Homo sapiens, UniProt O96013); conditions: 2 µM protein, 10 µM inhibitor, average of 3 experiments, each in duplicate
T10 construct: For all of them, we expressed and purified the catalytic domain separately; His-tag; made in house; host or cells: Escherichia coli
T10 sequence (O96013 321-572 limits assumed): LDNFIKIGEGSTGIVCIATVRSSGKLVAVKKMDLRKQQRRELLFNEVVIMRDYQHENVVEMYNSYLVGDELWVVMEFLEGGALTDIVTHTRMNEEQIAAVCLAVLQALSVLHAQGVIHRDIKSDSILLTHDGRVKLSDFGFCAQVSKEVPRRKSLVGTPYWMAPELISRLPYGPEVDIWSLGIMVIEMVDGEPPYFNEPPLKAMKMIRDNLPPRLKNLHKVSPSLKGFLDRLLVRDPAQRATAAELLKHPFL

[11] = target: T11, STK3 Catalytic domain+SARAH (Homo sapiens, UniProt Q13188); conditions: 2 µM protein, 10 µM inhibitor, average of 3 experiments, each in duplicate
T11 construct: for 8, we also made a longer version containing one or more additional domains; His-tag; made in house; host or cells: Escherichia coli
T11 sequence (Q13188 1-491): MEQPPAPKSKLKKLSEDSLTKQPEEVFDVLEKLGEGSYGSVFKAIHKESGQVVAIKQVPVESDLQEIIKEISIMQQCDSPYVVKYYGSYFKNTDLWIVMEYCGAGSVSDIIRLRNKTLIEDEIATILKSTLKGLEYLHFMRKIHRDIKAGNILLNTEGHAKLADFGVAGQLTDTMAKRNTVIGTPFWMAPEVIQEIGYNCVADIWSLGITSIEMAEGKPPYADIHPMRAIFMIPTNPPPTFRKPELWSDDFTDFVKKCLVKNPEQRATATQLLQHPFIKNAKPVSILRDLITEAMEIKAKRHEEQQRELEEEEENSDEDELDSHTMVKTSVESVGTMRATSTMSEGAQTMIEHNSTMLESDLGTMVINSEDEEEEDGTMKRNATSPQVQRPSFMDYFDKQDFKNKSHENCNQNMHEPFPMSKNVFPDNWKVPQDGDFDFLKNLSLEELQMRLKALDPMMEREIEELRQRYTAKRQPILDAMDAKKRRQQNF

[12] = target: T12, FES Catalytic Domain+SH2 (Homo sapiens, UniProt P07332); conditions: 2 µM protein, 10 µM inhibitor, average of 3 experiments, each in duplicate
T12 construct: for 8, we also made a longer version containing one or more additional domains; His-tag; made in house; host or cells: Escherichia coli
T12 sequence (P07332 448-822 limits assumed): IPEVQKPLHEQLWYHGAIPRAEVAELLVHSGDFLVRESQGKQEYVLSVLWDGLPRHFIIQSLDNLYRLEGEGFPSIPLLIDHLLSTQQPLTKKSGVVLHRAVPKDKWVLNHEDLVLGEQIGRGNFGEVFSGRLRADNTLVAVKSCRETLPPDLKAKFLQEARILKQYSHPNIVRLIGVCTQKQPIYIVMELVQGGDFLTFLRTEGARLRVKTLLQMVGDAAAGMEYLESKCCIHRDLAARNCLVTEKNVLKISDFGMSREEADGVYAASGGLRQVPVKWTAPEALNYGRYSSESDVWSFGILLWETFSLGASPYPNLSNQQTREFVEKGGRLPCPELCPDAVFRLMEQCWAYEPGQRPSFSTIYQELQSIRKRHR

[13] = target: T13, AKT3 Catalytic Domain (Homo sapiens, UniProt Q9Y243); conditions: 2 µM protein, 10 µM inhibitor, average of 3 experiments, each in duplicate
T13 construct: AKT3 (Q9Y243); CD; His-tag; made in house; host or cells: Escherichia coli
T13 sequence (Q9Y243 122-479): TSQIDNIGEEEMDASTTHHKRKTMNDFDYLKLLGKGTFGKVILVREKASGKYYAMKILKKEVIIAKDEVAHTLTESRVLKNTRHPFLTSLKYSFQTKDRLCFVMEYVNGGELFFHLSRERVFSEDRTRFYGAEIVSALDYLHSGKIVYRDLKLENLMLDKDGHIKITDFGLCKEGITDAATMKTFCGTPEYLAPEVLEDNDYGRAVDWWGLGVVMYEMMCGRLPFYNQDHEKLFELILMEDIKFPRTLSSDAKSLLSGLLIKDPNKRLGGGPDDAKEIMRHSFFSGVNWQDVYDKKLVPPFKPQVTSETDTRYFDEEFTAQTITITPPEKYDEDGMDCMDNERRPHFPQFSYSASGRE

[14] = target: SRC Catalytic Domain+SH2+SH3 (Homo sapiens, UniProt P12931); conditions: 2 µM protein, 10 µM inhibitor, average of 3 experiments, each in duplicate
Chain of SRC Catalytic Domain+SH2+SH3 (P12931 84-523 limits assumed): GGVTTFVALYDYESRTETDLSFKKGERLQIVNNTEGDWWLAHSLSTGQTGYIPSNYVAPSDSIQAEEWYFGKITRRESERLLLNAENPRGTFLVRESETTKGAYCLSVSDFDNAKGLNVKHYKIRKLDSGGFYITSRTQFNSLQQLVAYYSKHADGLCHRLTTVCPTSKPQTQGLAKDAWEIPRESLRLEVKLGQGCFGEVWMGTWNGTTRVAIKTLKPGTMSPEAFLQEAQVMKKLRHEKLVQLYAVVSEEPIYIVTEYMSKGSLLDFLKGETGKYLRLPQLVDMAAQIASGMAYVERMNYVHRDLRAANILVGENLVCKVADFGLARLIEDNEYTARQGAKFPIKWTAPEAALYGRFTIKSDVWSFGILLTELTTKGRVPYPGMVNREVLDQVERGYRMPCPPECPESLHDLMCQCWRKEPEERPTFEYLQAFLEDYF

SMILES | Melting temperature (Tm) shift [1] | Melting temperature (Tm) shift [2] | Melting temperature (Tm) shift [3] | Melting temperature (Tm) shift [4] | Melting temperature (Tm) shift [5] | Melting temperature (Tm) shift [6] | Melting temperature (Tm) shift [7] | Melting temperature (Tm) shift [8] | Melting temperature (Tm) shift [9] | Melting temperature (Tm) shift [10] | Melting temperature (Tm) shift [11] | Melting temperature (Tm) shift [12] | Melting temperature (Tm) shift [13] | Melting temperature (Tm) shift [14]
CCN1/C(=C/C(C)=O)Sc2ccc(OC)cc21 [Cdc2-Like Kinase Inhibitor, TG003] | 0.0 degrees Celcius | 0.2 degrees Celcius | 0.0 degrees Celcius | 0.0 degrees Celcius | 0.1 degrees Celcius | 0.0 degrees Celcius | 0.0 degrees Celcius | 0.0 degrees Celcius |  |  |  |  |  | 
O=C1NC(=O)c2c1c1c3ccccc3[nH]c1c1[nH]c3cc(Br)ccc3c21 [Cdk4 Inhibitor] |  | 0.8 degrees Celcius |  |  |  |  | 0.7 degrees Celcius |  | 0.4 degrees Celcius | 0.7 degrees Celcius |  |  |  | 
CC(C)n1cnc2c(NCc3ccccc3O)nc(NCCCO)nc21 [Cdk Inhibitor, p35] | 3.6 degrees Celcius | 0.3 degrees Celcius | 1.1 degrees Celcius | 1.1 degrees Celcius | 0.0 degrees Celcius | 0.3 degrees Celcius | 2.0 degrees Celcius | 0.8 degrees Celcius | 3.9 degrees Celcius | 1.4 degrees Celcius | 0.4 degrees Celcius | 0.2 degrees Celcius |  | 
CC(C)c1nn(-c2c(Cl)cccc2Cl)c2nc(Cc3ccc(OCCO)cc3)[nH]c(=O)c12 [Cdk/Crk Inhibitor] | 7.5 degrees Celcius | 1.3 degrees Celcius | 2.0 degrees Celcius | 0.6 degrees Celcius | 0.5 degrees Celcius | 0.8 degrees Celcius | 5.5 degrees Celcius | 0.6 degrees Celcius | 1.1 degrees Celcius | 1.9 degrees Celcius | 0.2 degrees Celcius | 0.1 degrees Celcius | 0.0 degrees Celcius | 
O=C1NC(=O)c2c1c1c3ccccc3[nH]c1n1cncc21 [Isogranulatimide] | 0.1 degrees Celcius | 0.5 degrees Celcius | 0.2 degrees Celcius | 1.6 degrees Celcius | 0.8 degrees Celcius | 2.6 degrees Celcius | 0.2 degrees Celcius | 4.5 degrees Celcius |  | 0.4 degrees Celcius | 1.3 degrees Celcius | 0.5 degrees Celcius | 2.9 degrees Celcius | 
CC(C)(C)c1nc2c3cc[nH]c(=O)c3c3cc(F)ccc3c2[nH]1 [JAK Inhibitor I] | 0.0 degrees Celcius |  | 0.2 degrees Celcius | 0.1 degrees Celcius | 3.0 degrees Celcius | 2.1 degrees Celcius | 0.0 degrees Celcius | 8.8 degrees Celcius | 0.2 degrees Celcius | 0.2 degrees Celcius | 3.2 degrees Celcius | 0.1 degrees Celcius |  | 
O=C1c2ccccc2-c2n[nH]c3cccc1c23 [JNK Inhibitor II] | 1.2 degrees Celcius | 1.4 degrees Celcius | 0.7 degrees Celcius | 2.6 degrees Celcius | 1.0 degrees Celcius | 2.0 degrees Celcius | 0.3 degrees Celcius | 5.2 degrees Celcius | 1.0 degrees Celcius | 1.1 degrees Celcius | 1.3 degrees Celcius | 0.9 degrees Celcius | 0.1 degrees Celcius | 
O=C1c2ccccc2-c2nc3nnnn3nc21 [PDK1/Akt/Flt Dual Pathway Inhibitor] | 0.1 degrees Celcius |  |  | 0.0 degrees Celcius |  |  | 0.4 degrees Celcius | 0.6 degrees Celcius |  |  | 0.0 degrees Celcius |  | 3.1 degrees Celcius | 
O=C1NC(=O)C(=Cc2ccc3c(c2)OCO3)S1 [PI 3-Kγ Inhibitor VII] |  | 0.3 degrees Celcius |  | 0.0 degrees Celcius | 0.0 degrees Celcius | 0.2 degrees Celcius | 0.1 degrees Celcius | 0.1 degrees Celcius |  |  |  |  | 0.0 degrees Celcius | 
O=C1Nc2ccc(Cl)cc2C1=Cc1cc(Cl)c(O)c(Cl)c1 [PKR Inhibitor, Negative Control] |  | 3.2 degrees Celcius | 0.3 degrees Celcius | 0.4 degrees Celcius |  | 1.2 degrees Celcius | 0.6 degrees Celcius | 3.9 degrees Celcius | 1.5 degrees Celcius | 0.9 degrees Celcius | 2.1 degrees Celcius | 0.5 degrees Celcius |  | 
O=c1c(O)c(-c2ccc(O)c(O)c2)oc2cc(O)c(O)c(O)c12 [Quercetagetin] | 0.2 degrees Celcius |  | 0.1 degrees Celcius | 0.1 degrees Celcius | 0.2 degrees Celcius | 0.2 degrees Celcius | 0.7 degrees Celcius | 1.1 degrees Celcius | 0.3 degrees Celcius | 0.0 degrees Celcius | 0.5 degrees Celcius | 0.1 degrees Celcius | 2.5 degrees Celcius | 0.0 degrees Celcius
